The values that follow come from patent publication US10934304B2, “Spirocyclic compounds” (Recurium IP Holdings, LLC, priority 2016, dated 2021).

Each structure is given as a SMILES string.

The subject of one experiment is A375 (melanoma) cells. Put plainly: Proliferation Assay (CellTiter-Glo). It counts as cell-based. Particulars: 3 days incubation, CellTiter-Glo luminescence. As for the experimental part: A375 (melanoma), Colo-205 (colon cancer), Miapaca (pancreatic), HPAFII (pancreatic), sNF02.0 (neurofibromatosis type 1), sNF96.2 (neurofibromatosis type 1) and 8505 (Thyroid) cells were grown and maintained in RPMI-1640 medium containing 100 U/mL penicillin-streptomycin and 10% fetal bovine serum. Cells were in growth medium in 96-well opaque-walled clear bottom plates and incubated in the CO2 incubator overnight before treatment. Cells were treated with compounds diluted in DMSO and a 10 point 3-fold serial dilutions were done. Plates were placed in 37° C., 5% CO2 to incubate for 3 days. Before they were developed by adding 100 μL of CellTiter-Glo reagent (Promega) to the assay plate, plates were shaken briefly for 2 mins and allowed to incubate at room temperature for 10 mins. The bottom of the plates was pasted with white back seal and luminescence was recorded with Flexstation3 with setting of luminescence, integration time 500 ms.
Compounds of Formula (I), (II) and (III) are active in this assay as noted in Table 2.

The target of the next experiment is ERK2 (Homo sapiens (Human), UniProt P28482). Put plainly: Active ERK1 and ERK2 Kinase Assay (Mobility Shift Assay). The conditions noted are these: activated ERK2, Mobility Shift Assay. It is filed as biochemical. As for the experimental part:
Activated ERK1 and ERK2 activity was determined in a Mobility Shift Assay (MSA) format as follows: Compound and kinase solution were prepared with assay buffer (20 mM HEPES, 0.01% Triton X-100, 2 mM DTT, pH7.5) and mixed and incubated in for 30 mins at rt. ERK1 & ERK2 were then activated by the addition of F1-Substrate, ATP and metal solution and incubated for 1 h at rt. After 1 h, the reaction was terminated by the addition of […] of Termination Buffer (QuickScout Screening Assist MSA; Carna Biosciences) to the well. The reaction mixture was applied to LabChip™ system (PerkinElmer), and the product and substrate peptide peaks were separated, analyzed and quantitated. The kinase reaction is evaluated by the product ratio calculated from peak heights of product (P) and substrate(S) peptides (P/(P+S)).

A word on the IC50: it is the concentration that inhibits the measured activity by half.

Sequence of ERK2 (P28482 whole entry): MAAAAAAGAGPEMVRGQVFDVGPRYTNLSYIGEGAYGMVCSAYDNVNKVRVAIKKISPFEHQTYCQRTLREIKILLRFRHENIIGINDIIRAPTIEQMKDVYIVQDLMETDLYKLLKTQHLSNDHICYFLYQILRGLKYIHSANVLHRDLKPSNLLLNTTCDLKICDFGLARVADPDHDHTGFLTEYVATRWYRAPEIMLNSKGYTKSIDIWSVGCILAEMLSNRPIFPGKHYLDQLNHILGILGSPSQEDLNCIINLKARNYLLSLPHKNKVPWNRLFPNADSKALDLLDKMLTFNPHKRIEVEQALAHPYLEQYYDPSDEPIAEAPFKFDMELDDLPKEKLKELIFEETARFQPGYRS

As to `CN1CCC(c2n[nH]c3ccc(N4CC[C@]5(CCN(CC(=O)N6CC=C(c7ccc(-c8ncn(C)n8)cc7)CC6)C5)C4=O)cc23)CC1` [Example 4, (S)-7-(2-(4-(4-(1-methyl-1H-1,2,4-triazol-3-yl)phenyl)-3,6-dihydropyridin-1(2H)-yl)-2-oxoethyl)-2-(3-(1-methylpiperidin-4-yl)-1H-indazol-5-yl)-2,7-diazaspiro[4.4]nonan-1-one], the IC50 was at least 1 µM in the experiment on A375 (melanoma) cells (Homo sapiens, A-375, 72 h) and at least 0.25 µM at ERK2.

Take `CNC(=O)c1cc(-c2n[nH]c3ccc(N4CC[C@]5(CCN(CC(=O)N6CC=C(c7ccc(-c8ncn(C)n8)cc7)CC6)C5)C4=O)cc23)ccn1` [Example 5]: the IC50 is at most 0.5 µM in the experiment on A375 (melanoma) cells (Homo sapiens, A-375, 72 h) and at most 0.05 µM at ERK2.

Turning to `CNC(=O)c1ccc(-c2n[nH]c3ccc(N4CC[C@]5(CCN(CC(=O)N6CC=C(c7ccc(-c8ncn(C)n8)cc7)CC6)C5)C4=O)cc23)cn1` [Example 6], the IC50 in the experiment on A375 (melanoma) cells (Homo sapiens, A-375, 72 h) was at most 0.5 µM; on ERK2, at most 0.05 µM.

Turning to `Cn1cnc(-c2ccc(C3=CCN(C(=O)CN4CC[C@]5(CCN(c6ccc7[nH]nc(C8CCS(=O)(=O)CC8)c7c6)C5=O)C4)CC3)cc2)n1` [Example 7, (S)-7-(2-(4-(4-(1-Methyl-1H-1,2,4-triazol-3-yl)phenyl)-5,6-dihydropyridin-1(2H)-yl)-2-oxoethyl)-2-(3-(tetrahydro-2H-thiopyran 1,1-dioxide-4-yl)-1H-indazol-5-yl)-2,7-diazaspiro[4.4]nonan-1-one], the IC50 in the experiment with A375 (melanoma) cells (Homo sapiens, A-375, 72 h) is at least 1 µM; on ERK2, at most 0.05 µM.

As for `COc1ncc(-c2n[nH]c3ccc(N4CC[C@]5(CCN(CC(=O)N6CC=C(c7ccc(-c8ncn(C)n8)cc7)CC6)C5)C4=O)cc23)cc1C(F)(F)F` [Example 8], the IC50 in the experiment on A375 (melanoma) cells (Homo sapiens, A-375, 72 h) was at least 1 µM; at ERK2, at most 0.05 µM.

`Cn1cnc(-c2ccc(C3=CCN(C(=O)CN4CC[C@]5(CCN(c6ccc7[nH]nc(-c8cnc(C#N)c(Cl)c8)c7c6)C5=O)C4)CC3)cc2)n1` [Example 9]: the IC50 is at most 0.5 µM in the experiment with A375 (melanoma) cells (Homo sapiens, A-375, 72 h) and at most 0.05 µM on ERK2.

Take `Cn1cnc(-c2ccc(C3=CCN(C(=O)CN4CC[C@]5(CCN(c6ccc7[nH]nc(-c8cnc(C#N)c(C(F)(F)F)c8)c7c6)C5=O)C4)CC3)cc2)n1` [Example 10]: the IC50 in the experiment with A375 (melanoma) cells (Homo sapiens, A-375, 72 h) is 0.5 to 1 µM; at ERK2, at most 0.05 µM.

In the case of `Cn1cnc(-c2ccc(C3=CCN(C(=O)CN4CC[C@]5(CCN(c6ccc7[nH]nc(N8CCCC8)c7c6)C5=O)C4)CC3)cc2)n1` [Example 11, (S)-7-(2-(4-(4-(1-Methyl-1H-1,2,4-triazol-3-yl)phenyl)-5,6-dihydropyridin-1(2H)-yl)-2-oxoethyl)-2-(3-(pyrrolidin-1-yl)-1H-indazol-5-yl)-2,7-diazaspiro[4.4]nonan-1-one], the IC50 was at least 1 µM in the experiment with A375 (melanoma) cells (Homo sapiens, A-375, 72 h) and at most 0.05 µM on ERK2.

`Cn1cnc(-c2ccc(C3=CCN(C(=O)CN4CC[C@]5(CCN(c6ccc7[nH]nc(C8CCN(CC(F)(F)F)CC8)c7c6)C5=O)C4)CC3)cc2)n1` [Example 12, (S)-7-(2-(4-(4-(1-Methyl-1H-1,2,4-triazol-3-yl)phenyl)-5,6-dihydropyridin-1(2H)-yl)-2-oxoethyl)-2-(3-(1-(2,2,2-trifluoroethyl)piperidin-4-yl)-1H-indazol-5-yl)-2,7-diazaspiro[4.4]nonan-1-one]: the IC50 in the experiment with A375 (melanoma) cells (Homo sapiens, A-375, 72 h) was 0.5 to 1 µM; at ERK2, at most 0.05 µM.

With `Cn1cnc(-c2ccc(C3=CCN(C(=O)CN4CC[C@]5(CCN(c6ccc7[nH]nc(C8CCOC8)c7c6)C5=O)C4)CC3)cc2)n1` (stereo partly drawn) [Example 13, (5S)-7-(2-(4-(4-(1-Methyl-1H-1,2,4-triazol-3-yl)phenyl)-5,6-dihydropyridin-1(2H)-yl)-2-oxoethyl)-2-(3-(tetrahydrofuran-3-yl)-1H-indazol-5-yl)-2,7-diazaspiro[4.4]nonan-1-one], the IC50 is at most 0.5 µM in the experiment on A375 (melanoma) cells (Homo sapiens, A-375, 72 h) and at most 0.05 µM at ERK2.

Regarding `Cn1nc(-c2ccc(C3=CCN(C(=O)CN4CC[C@]5(CCN(c6ccc7[nH]nc(-c8ccc(C#N)c(Cl)c8)c7c6)C5=O)C4)CC3)cc2)oc1=O` [Example 14], the IC50 in the experiment on A375 (melanoma) cells was at most 0.5 µM; at ERK2, at most 0.05 µM.

Take `Cn1nc(-c2ccc(C3=CCN(C(=O)CN4CC[C@]5(CCN(c6ccc7[nH]nc(-c8ccc(C#N)c(C(F)(F)F)c8)c7c6)C5=O)C4)CC3)cc2)oc1=O` [Example 15]: the IC50 in the experiment with A375 (melanoma) cells was 0.5 to 1 µM; at ERK2, at most 0.05 µM.

Consider `CNC(=O)c1cc(-c2n[nH]c3ccc(N4CC[C@]5(CCN(CC(=O)N6CC=C(c7ccc(-c8nn(C)c(=O)o8)cc7)CC6)C5)C4=O)cc23)ccc1F` [Example 16], for which the values for the IC50 in the experiment on A375 (melanoma) cells and on ERK2 were at most 0.5 µM and at most 0.05 µM, respectively.

In the case of `Cn1cnc(-c2cnc(C3=CCN(C(=O)CN4CC[C@]5(CCN(c6ccc7[nH]nc(-c8ccc(F)cc8)c7c6)C5=O)C4)CC3)s2)n1` [Example 17], the IC50 was at most 0.5 µM in the experiment with A375 (melanoma) cells and at most 0.05 µM at ERK2.

As for `Cn1nc(-c2ccc(C3=CCN(C(=O)CN4CC[C@]5(CCN(c6ccc7[nH]nc(-c8ccc(F)cc8)c7c6)C5=O)C4)CC3)cc2)oc1=O` [Example 18], the results for the IC50 with A375 (melanoma) cells and on ERK2 were at most 0.5 µM and at most 0.05 µM, respectively.

As for `COc1ccc(-c2n[nH]c3ccc(N4CC[C@]5(CCN(CC(=O)N6CC=C(c7ccc(-c8nn(C)c(=O)o8)cc7)CC6)C5)C4=O)cc23)cn1` [Example 19], the IC50 with A375 (melanoma) cells is at most 0.5 µM; at ERK2, at most 0.05 µM.

Turning to `Cc1ccc(-c2n[nH]c3ccc(N4CC[C@]5(CCN(CC(=O)N6CC=C(c7ccc(-c8ncn(C)n8)cc7)CC6)C5)C4=O)nc23)cn1` [Example 20], the IC50 is at most 0.5 µM in the experiment on A375 (melanoma) cells and at most 0.05 µM at ERK2.

Consider `COc1ccc(-c2n[nH]c3ccc(N4CC[C@]5(CCN(CC(=O)N6CC=C(c7ccc(-c8ncn(C)n8)cc7)CC6)C5)C4=O)nc23)cn1` [Example 21], for which the IC50 in the experiment on A375 (melanoma) cells was at most 0.5 µM; on ERK2, at most 0.05 µM.

In the case of `Cn1cnc(-c2ccc(C3=CCN(C(=O)CN4CC[C@]5(CCN(c6ccc7[nH]nc(C8CCOCC8)c7n6)C5=O)C4)CC3)cc2)n1` [Example 22, (S)-7-(2-(4-(4-(1-Methyl-1H-1,2,4-triazol-3-yl)phenyl)-5,6-dihydropyridin-1(2H)-yl)-2-oxoethyl)-2-(3-(tetrahydro-2H-pyran-4-yl)-1H-pyrazolo[4,3-b]pyridin-5-yl)-2,7-diazaspiro[4.4]nonan-1-one], the IC50 in the experiment with A375 (melanoma) cells (Homo sapiens, A-375, 72 h) is at most 0.5 µM; on ERK2 it was at most 0.05 µM.

Regarding `Cn1nc(-c2ccc(C3=CCN(C(=O)CN4CCC5(CCN(c6ccc7[nH]nc(C8CCOCC8)c7n6)C5=O)C4)CC3)cc2)oc1=O` (stereo not shown) [Example 23], the IC50 in the experiment with A375 (melanoma) cells is at most 0.5 µM; at ERK2, at most 0.05 µM.

For the molecule `Cc1nc2cc(-c3n[nH]c4ccc(N5CC[C@]6(CCN(CC(=O)N7CC=C(c8ccc(-c9ncn(C)n9)cc8)CC7)C6)C5=O)nc34)ccc2o1` [Example 24], the results for the IC50 in the experiment with A375 (melanoma) cells and at ERK2 were at most 0.5 µM and at most 0.05 µM, respectively.

For `CC(C)Oc1ccc(-c2n[nH]c3ccc(N4CC[C@]5(CCN(CC(=O)N6CC=C(c7ncc(-c8ncn(C)n8)s7)CC6)C5)C4=O)nc23)cn1` [Example 25], the IC50 in the experiment with A375 (melanoma) cells was at most 0.5 µM; at ERK2, at most 0.05 µM.

As to `Cn1cnc(-c2ccc(C3=CCN(C(=O)CN4CC[C@]5(CCN(c6ccc7[nH]nc(C8=CCOCC8)c7n6)C5=O)C4)CC3)cc2)n1` [Example 26], the IC50 was at most 0.5 µM in the experiment on A375 (melanoma) cells (Homo sapiens, A-375, 72 h) and at most 0.05 µM on ERK2.

For `Cn1cnc(-c2ccc(C3=CCN(C(=O)CN4CC[C@]5(CCN(c6ccc7[nH]nc(-c8ccc(C#N)cc8)c7n6)C5=O)C4)CC3)cc2)n1` [Example 27], the IC50 in the experiment on A375 (melanoma) cells (Homo sapiens, A-375, 72 h) is at most 0.5 µM; on ERK2, at most 0.05 µM.

For `Cn1cnc(-c2ccc(C3=CCN(C(=O)CN4CC[C@]5(CCN(c6ccc7[nH]nc(-c8ccc(F)cn8)c7c6)C5=O)C4)CC3)cc2)n1` [Example 28, (S)-2-(3-(5-Fluoropyridin-2-yl)-1H-indazol-5-yl)-7-(2-(4-(4-(1-methyl-1H-1,2,4-triazol-3-yl)phenyl)-5,6-dihydropyridin-1(2H)-yl)-2-oxoethyl)-2,7-diazaspiro[4.4]nonan-1-one], the IC50 in the experiment with A375 (melanoma) cells (Homo sapiens, A-375, 72 h) was at most 0.5 µM; on ERK2, at most 0.05 µM.

With `Cn1cnc(-c2ccc(C3=CCN(C(=O)CN4CC[C@]5(CCN(c6ccc7[nH]nc(-c8ccc(C#N)cn8)c7c6)C5=O)C4)CC3)cc2)n1` [Example 29], the IC50 was at most 0.5 µM in the experiment with A375 (melanoma) cells (Homo sapiens, A-375, 72 h) and at most 0.05 µM on ERK2.

As for `CC(C)n1cc(-c2n[nH]c3ccc(N4CC[C@]5(CCN(CC(=O)N6CC=C(c7ccc(-c8nn(C)c(=O)o8)cc7)CC6)C5)C4=O)cc23)cn1` [Example 31], the IC50 in the experiment with A375 (melanoma) cells (Homo sapiens, A-375, 72 h) was at most 0.5 µM; at ERK2, at most 0.05 µM.

With `Cn1nc(-c2ccc(C3=CCN(C(=O)CN4CC[C@]5(CCN(c6ccc7[nH]nc(C8=CCOCC8)c7c6)C5=O)C4)CC3)cc2)oc1=O` [Example 32], the IC50 is at most 0.5 µM with A375 (melanoma) cells (Homo sapiens, A-375, 72 h) and at most 0.05 µM at ERK2.

As to `Cc1ncc(-c2n[nH]c3ccc(N4CC[C@]5(CCN(CC(=O)N6CC=C(c7ccc(-c8nn(C)c(=O)o8)cc7)CC6)C5)C4=O)cc23)s1` [Example 33], the IC50 was at most 0.5 µM in the experiment on A375 (melanoma) cells (Homo sapiens, A-375, 72 h) and at most 0.05 µM on ERK2.
